Measured values reported in ChEMBL document CHEMBL4184158, “Azolylthioacetamides as a potent scaffold for the development of metallo-β-lactamase inhibitors” (Bioorg Med Chem Lett, 2017).
Activity calls are given as the source filed them. The rule behind the calls is not given here.

Tests used:
[1] = Inhibition of bacterial ImiS expressed in Escherichia coli BL21 (DE3) transformed cells using imipenem as substrate by UV spectrometry; design: species or system Bacteria
Bacteria [2] = test: Inhibition of bacterial NDM1 expressed in Escherichia coli BL21 (DE3) transformed cells assessed as potentiation of imipenem-induced antibacterial activity by measuring imipenem MIC after 20 hrs by broth microdilution assay (reference value: 16 ug/ml)
Bacteria [3] = test: Inhibition of bacterial NDM1 expressed in Escherichia coli DH5R transformed cells at 500 uM using imipenem as substrate by UV spectrometry
Escherichia coli = test: Antibacterial activity against Escherichia coli BL21(DE3) at 16 ug/ml after 20 hrs by broth microdilution assay; assay type: functional, organism-based
Bacteria [4] = test: Inhibition of bacterial ImiS expressed in Escherichia coli BL21 (DE3) transformed cells assessed as potentiation of imipenem-induced antibacterial activity by measuring imipenem MIC after 20 hrs by broth microdilution assay (reference value: 1 ug/ml)
Bacteria [5] = test: Inhibition of bacterial metallo-beta-lactamase L1 expressed in Escherichia coli […] cells at 500 uM using imipenem as substrate by UV spectrometry
Bacteria [6] = test: Competitive inhibition of bacterial ImiS expressed in Escherichia coli BL21 (DE3) transformed cells using imipenem as substrate after 5 mins by Lineweaver-Burk plot method
Bacteria [7] = test: Uncompetitive inhibition of bacterial ImiS expressed in Escherichia coli BL21 (DE3) transformed cells using imipenem as substrate after 5 mins by Lineweaver-Burk plot method
Bacteria [8] = test: Inhibition of bacterial ImiS expressed in Escherichia coli BL21 (DE3) transformed cells at 500 uM using imipenem as substrate by UV spectrometry
[9] = Inhibition of bacterial NDM1 expressed in Escherichia coli DH5R transformed cells using imipenem as substrate by UV spectrometry; design: species or system Bacteria
Bacteria [10] = test: Uncompetitive inhibition of bacterial NDM-1 expressed in Escherichia coli BL21 (DE3) transformed cells using imipenem as substrate after 5 mins by Lineweaver-Burk plot method
Bacteria [11] = test: Competitive inhibition of bacterial NDM-1 expressed in Escherichia coli BL21 (DE3) transformed cells using imipenem as substrate after 5 mins by Lineweaver-Burk plot method

| Compound | IC50 [1] | MIC (Bacteria [2]) | inhibition (Bacteria [3]) | Activity (Escherichia coli) | MIC (Bacteria [4]) | inhibition (Bacteria [5]) | Kic (Bacteria [6]) | Kiuc (Bacteria [7]) | inhibition (Bacteria [8]) | IC50 [9] | Kiuc (Bacteria [10]) | Kic (Bacteria [11]) |
| --- | --- | --- | --- | --- | --- | --- | --- | --- | --- | --- | --- | --- |
| O=C(CSc1nnc(-c2cccc([N+](=O)[O-])c2)s1)Nc1nc2ccccc2o1 | 133 µM | 16 µg/mL | inactive | inactive | 0.5 µg/mL | inactive |  |  |  |  |  |  |
| Nc1ccccc1-c1nnc(SCC(=O)Nc2nc3ccccc3[nH]2)s1 | 1.2 µM | 32 µg/mL | inactive | inactive | 0.5 µg/mL | inactive |  |  |  |  |  |  |
| O=C(CSc1nnc(Cc2ccccc2)s1)Nc1nc2ccccc2o1 | 259 µM | 16 µg/mL | inactive | inactive | 0.5 µg/mL | inactive |  |  |  |  |  |  |
| O=C(CSc1nnc(-c2ccccc2O)o1)Nc1nc2ccccc2[nH]1 | 0.63 µM | 16 µg/mL | inactive | inactive | 0.5 µg/mL | inactive |  |  |  |  |  |  |
| Nn1c(Cc2cccs2)nnc1SCC(=O)Nc1nc2ccccc2[nH]1 | 0.077 µM | 16 µg/mL | inactive | inactive | 0.25 µg/mL | inactive | 110 nM | 80 nM |  |  |  |  |
| O=C(CSc1nnc(Cc2ccccc2)s1)Nc1nc2ccccc2[nH]1 | 18 µM | 16 µg/mL | inactive | inactive | 0.5 µg/mL | inactive |  |  |  |  |  |  |
| O=C(CSc1nnc(-c2cccc([N+](=O)[O-])c2)[nH]1)Nc1nc2ccccc2o1 | 378 µM | 16 µg/mL | inactive | inactive | 0.25 µg/mL | inactive |  |  |  |  |  |  |
| O=C(CSc1nnc(-c2ccccc2O)s1)Nc1nc2ccccc2[nH]1 | 0.33 µM | 16 µg/mL | inactive | inactive | 0.5 µg/mL | inactive |  |  |  |  |  |  |
| O=C(CSc1nnc(-c2cccc([N+](=O)[O-])c2)s1)Nc1nc2ccc([N+](=O)[O-])cc2[nH]1 |  | 8 µg/mL |  | inactive | 1 µg/mL | inactive |  |  | inactive | 5.1 µM |  |  |
| O=C(CSc1nnc(-c2ccccc2O)[nH]1)Nc1nc2ccc([N+](=O)[O-])cc2[nH]1 |  | 8 µg/mL |  | inactive | 1 µg/mL | inactive |  |  | inactive | 5.9 µM |  |  |
| O=C(CSc1nnc(-c2ccccc2O)s1)Nc1nc2ccc([N+](=O)[O-])cc2[nH]1 |  | 8 µg/mL |  | inactive | 1 µg/mL | inactive |  |  | inactive | 6.4 µM |  |  |
| Nc1ccccc1-c1nnc(SCC(=O)Nc2nc3ccccc3[nH]2)o1 | 1.7 µM | 16 µg/mL | inactive | inactive | 0.25 µg/mL | inactive |  |  |  |  |  |  |
| O=C(CSc1nnc(Cc2ccccc2)o1)Nc1nc2ccccc2[nH]1 | 3 µM | 16 µg/mL | inactive | inactive | 0.25 µg/mL | inactive |  |  |  |  |  |  |
| Nc1ccccc1-c1nnc(SCC(=O)Nc2nc3ccc([N+](=O)[O-])cc3[nH]2)n1N |  | 8 µg/mL |  | inactive | 1 µg/mL | inactive |  |  | inactive | 1.1 µM |  |  |
| O=C(CSc1nnc(Cc2ccccc2)o1)Nc1nc2ccc([N+](=O)[O-])cc2[nH]1 |  | 4 µg/mL |  | inactive | 1 µg/mL | inactive |  |  | inactive | 0.5 µM |  |  |
| Nc1ccccc1-c1nnc(SCC(=O)Nc2nc3ccc([N+](=O)[O-])cc3[nH]2)s1 |  | 8 µg/mL |  | inactive | 2 µg/mL | inactive |  |  | inactive | 2.5 µM |  |  |
| Nc1ccccc1-c1nnc(SCC(=O)Nc2nc3ccccc3[nH]2)[nH]1 | 0.94 µM | 16 µg/mL | inactive | inactive | 0.5 µg/mL | inactive |  |  |  |  |  |  |
| Nc1ccccc1-c1nnc(SCC(=O)Nc2nc3ccc([N+](=O)[O-])cc3[nH]2)[nH]1 |  | 4 µg/mL |  | inactive | 1 µg/mL | inactive |  |  | inactive | 0.17 µM | 310 nM | 550 nM |
| O=C(CSc1nnc(Cc2ccccc2)o1)Nc1nc2ccccc2o1 | 384 µM | 32 µg/mL | inactive | inactive | 0.5 µg/mL | inactive |  |  |  |  |  |  |
| Nn1c(Cc2ccccc2)nnc1SCC(=O)Nc1nc2ccccc2[nH]1 | 0.27 µM | 16 µg/mL | inactive | inactive | 0.5 µg/mL | inactive |  |  |  |  |  |  |
| O=C(CSc1nnc(-c2ccccc2O)s1)Nc1nc2ccccc2o1 | 196 µM | 16 µg/mL | inactive | inactive | 0.5 µg/mL | inactive |  |  |  |  |  |  |
| Nn1c(Cc2cccs2)nnc1SCC(=O)Nc1nc2ccccc2o1 | 53 µM | 16 µg/mL | inactive | inactive | 0.5 µg/mL | inactive |  |  |  |  |  |  |
| Nn1c(Cc2ccccc2)nnc1SCC(=O)Nc1nc2ccc([N+](=O)[O-])cc2[nH]1 |  | 4 µg/mL |  | inactive | 1 µg/mL | inactive |  |  | inactive | 0.73 µM |  |  |
| O=C(CSc1nnc(CCc2nnc(SCC(=O)Nc3nc4ccccc4[nH]3)s2)s1)Nc1nc2ccccc2[nH]1 | 0.39 µM | 16 µg/mL | inactive | inactive | 0.25 µg/mL | inactive |  |  |  |  |  |  |
| O=C(CSc1nnc(-c2ccccc2O)o1)Nc1nc2ccc([N+](=O)[O-])cc2[nH]1 |  | 8 µg/mL |  | inactive | 1 µg/mL | inactive |  |  | inactive | 1.3 µM |  |  |
| Nn1c(Cc2ccccc2)nnc1SCC(=O)Nc1nc2ccccc2o1 | 29 µM | 16 µg/mL | inactive | inactive | 0.5 µg/mL | inactive |  |  |  |  |  |  |
| Nc1ccccc1-c1nnc(SCC(=O)Nc2nc3ccccc3[nH]2)n1N | 0.015 µM | 16 µg/mL | inactive | inactive | 0.25 µg/mL | inactive | 22 nM | 11 nM |  |  |  |  |
| O=C(CSc1nnc(-c2cccc([N+](=O)[O-])c2)s1)Nc1nc2ccccc2[nH]1 | 1.8 µM | 16 µg/mL | inactive | inactive | 0.5 µg/mL | inactive |  |  |  |  |  |  |
